Format in all cases: in vivo, rat
Assay [1] concerns atrial natriuretic peptide (ANP) mRNA. Nature of the assay: RT-PCR of left ventricular ANP mRNA in dTGR. The note with it: 9 weeks. As for the experimental part: As an example, four-week-old, male dTGR are allowed to develop hypertension and are placed in metabolic cages at 5.5 weeks of age. Systolic blood pressure (tail-cuff) and 24 h albumin excretion (ELISA, CellTrend, Germany) are measured as described earlier by Muller et al. Am J Pathol. 2002, 161:1679-93 and Muller et al. Am J Pathol. 2004, 164:521-32. The dTGR are matched at week 6 in terms of 24 h albumin excretion and distributed in five groups of 19 rats each. Treatments begin when the rats are aged 6 weeks. The rats receive vehicle treatment, aliskiren at 0.3 mg/kg/day and 3 mg/kg/day (by subcutaneous minipump), valsartan 1 mg/kg/day, and valsartan 10 mg/kg/day (given in the food). The low dose of valsartan is selected as a threshold treatment to reduce mortality yet only minimally effect blood pressure and organ damage. We know from earlier studies that vehicle-treated animals would not survive beyond 8 weeks of age and thus this low dose valsartan group will serve as a control group at 9 weeks. Echocardiography (M-mode tracings in the short axis and Tissue-Doppler-imaging;, n=5-6 per group at weeks 7 and 9) is performed with a 15 MHz phased-array transducer under isoflurane anesthesia (Mazak et al. Circulation. 2004; 109:2792-800). Three measurements per heart are determined, averaged, and statistically analyzed. M-mode is performed in a LV short axis and measured according to the leading edge-method. Total wall thickness is calculated as sum of septum+left ventricular posterior wall. For RT-PCR, LV mRNA is isolated with TRIZOL (Gibco Life Technology). RT-PCR for α-myosin heavy chain (α-MHC) and β-MHC, as well as for atrial natriuretic peptide (ANP) is carried out in 25 μL SybrGreen PCR Master Mix (Applied Biosystems, Germany) containing […] primer and 1 μL of the reverse transcription reaction in a 5700 Sequence Detection System (Applied Biosystems). […]

Assay [2] relates to double transgenic rats expressing human renin and human angiotensinogen (dTGR). Nature of the assay: Cardiac hypertrophy index at sacrifice in dTGR. Particulars: for cardiac hypertrophy index score: p<0.05. As for the experimental part:
To circumvent this problem, transgenic rats have been developed harboring either the human renin or the human angiotensinogen genes. […] Consequently, the single transgenic rats (i.e., transgenic for either human angiotensinogen or renin) are normotensive. […] As an example, four-week-old, male dTGR are allowed to develop hypertension and are placed in metabolic cages at 5.5 weeks of age. Systolic blood pressure (tail-cuff) and 24 h albumin excretion (ELISA, CellTrend, Germany) are measured as described earlier by Muller et al. Am J Pathol. 2002, 161:1679-93 and Muller et al. Am J Pathol. 2004, 164:521-32. The dTGR are matched at week 6 in terms of 24 h albumin excretion and distributed in five groups of 19 rats each. Treatments begin when the rats are aged 6 weeks. The rats receive vehicle treatment, aliskiren at 0.3 mg/kg/day and 3 mg/kg/day (by subcutaneous minipump), valsartan 1 mg/kg/day, and valsartan 10 mg/kg/day (given in the food). The low dose of valsartan is selected as a threshold treatment to reduce mortality yet only minimally effect blood pressure and organ damage. We know from earlier studies that vehicle-treated animals would not survive beyond 8 weeks of age and thus this low dose valsartan group will serve as a control group at 9 weeks. Echocardiography (M-mode tracings in the short axis and Tissue-Doppler-imaging;, n=5-6 per group at weeks 7 and 9) is performed with a 15 MHz phased-array transducer under isoflurane anesthesia (Mazak et al. Circulation. 2004; 109:2792-800). Three measurements per heart are determined, averaged, and statistically analyzed. M-mode is performed in a LV short axis and measured according to the leading edge-method. Total wall thickness is calculated as sum of septum+left ventricular posterior wall. Rats are sacrificed at age 9 weeks. The kidneys and hearts are removed and washed with ice-cold saline, blotted dry, and weighed. Tissue preparation and immunohistological techniques are performed as previously described Muller et al. Am J Pathol. 2002, 161:1679-93. Sections are incubated with primary antibodies against rat monocytes/macrophages (ED-1, Serotec, Germany), MHC II+, CD4+, and CD86+ cells (all BD Pharmingen, Germany). Scoring of infiltrated cells is performed using the program KS 300 3.0 (Zeiss, Germany). Fifteen different areas of each kidney (n=5 in all groups) are analyzed. A mean score for each animal is computed and used to derive a group mean score. Analyses are conducted without knowledge of the specific treatment.

For assay [3] the test system is unchanged. Nature of the assay: Tissue Doppler assessment of diastolic filling (Ea/Aa) in dTGR. Particulars: dTGR at 9 weeks. As for the experimental part:
(§1) As an example, four-week-old, male dTGR are allowed to develop hypertension and are placed in metabolic cages at 5.5 weeks of age. Systolic blood pressure (tail-cuff) and 24 h albumin excretion (ELISA, CellTrend, Germany) are measured as described earlier by Muller et al. Am J Pathol. 2002, 161:1679-93 and Muller et al. Am J Pathol. 2004, 164:521-32. The dTGR are matched at week 6 in terms of 24 h albumin excretion and distributed in five groups of 19 rats each. Treatments begin when the rats are aged 6 weeks. The rats receive vehicle treatment, aliskiren at 0.3 mg/kg/day and 3 mg/kg/day (by subcutaneous minipump), valsartan 1 mg/kg/day, and valsartan 10 mg/kg/day (given in the food). The low dose of valsartan is selected as a threshold treatment to reduce mortality yet only minimally effect blood pressure and organ damage. We know from earlier studies that vehicle-treated animals would not survive beyond 8 weeks of age and thus this low dose valsartan group will serve as a control group at 9 weeks. Echocardiography (M-mode tracings in the short axis and Tissue-Doppler-imaging;, n=5-6 per group at weeks 7 and 9) is performed with a 15 MHz phased-array transducer under isoflurane anesthesia (Mazak et al. Circulation. 2004; 109:2792-800). Three measurements per heart are determined, averaged, and statistically analyzed. M-mode is performed in a LV short axis and measured according to the leading edge-method. Total wall thickness is calculated as sum of septum+left ventricular posterior wall.
Tissue Doppler measures the velocity of the longitudinal cardiac movement at the basal septum, allowing assessment of diastolic filling Tissue Doppler measurements are performed with the sample volume in the basal septum in a four-chamber view. […] The measurements represent velocities of peak early (Ea) and late (Aa) diastolic expansion velocities. The Ea/Aa ratio is reported as an index of diastolic function.

Assay [4] has the same test system. Nature of the assay: M-mode echocardiography of LV wall thickness / hypertrophy in dTGR. The note with it: dTGR at 9 weeks. How it is done:
as §1

Assay [5] deals with α-myosin heavy chain (α-MHC) and β-MHC mRNA. Nature of the assay: RT-PCR of left ventricular α-MHC and β-MHC mRNA in dTGR. Particulars: left ventricle, 9 weeks. How it is done: As an example, four-week-old, male dTGR are allowed to develop hypertension and are placed in metabolic cages at 5.5 weeks of age. Systolic blood pressure (tail-cuff) and 24 h albumin excretion (ELISA, CellTrend, Germany) are measured as described earlier by Muller et al. Am J Pathol. 2002, 161:1679-93 and Muller et al. Am J Pathol. 2004, 164:521-32. The dTGR are matched at week 6 in terms of 24 h albumin excretion and distributed in five groups of 19 rats each. Treatments begin when the rats are aged 6 weeks. The rats receive vehicle treatment, aliskiren at 0.3 mg/kg/day and 3 mg/kg/day (by subcutaneous minipump), valsartan 1 mg/kg/day, and valsartan 10 mg/kg/day (given in the food). The low dose of valsartan is selected as a threshold treatment to reduce mortality yet only minimally effect blood pressure and organ damage. We know from earlier studies that vehicle-treated animals would not survive beyond 8 weeks of age and thus this low dose valsartan group will serve as a control group at 9 weeks. Echocardiography (M-mode tracings in the short axis and Tissue-Doppler-imaging;, n=5-6 per group at weeks 7 and 9) is performed with a 15 MHz phased-array transducer under isoflurane anesthesia (Mazak et al. Circulation. 2004; 109:2792-800). Three measurements per heart are determined, averaged, and statistically analyzed. M-mode is performed in a LV short axis and measured according to the leading edge-method. Total wall thickness is calculated as sum of septum+left ventricular posterior wall. For RT-PCR, LV mRNA is isolated with TRIZOL (Gibco Life Technology). RT-PCR for α-myosin heavy chain (α-MHC) and β-MHC, as well as for atrial natriuretic peptide (ANP) is carried out in 25 μL SybrGreen PCR Master Mix (Applied Biosystems, Germany) containing […] primer and 1 μL of the reverse transcription reaction in a 5700 Sequence Detection System (Applied Biosystems). Thermal cycling conditions comprise an initial denaturation step at 95° C. for 10 min, followed by 95° C. for 15 s and 65° C. for 1 min for 40 cycles. mRNA expression is standardized to the hypoxanthine phosphoribosyl transferase gene as a housekeeping gene (primer sequences available on request).

Where [6] appears, read: valsartan 1 mg/kg/d in the food.
Setting [7] is: valsartan 10 mg/kg/d in the food.
Setting [8] is: aliskiren 3 mg/kg/d, listed as Alisk.

Entries after “also recorded” stand apart in the source; their conditions may differ.

Here are results for 2 compounds from patent publication US20130196977A1, “USE OF ORGANIC COMPOUNDS” (priority 2004, published 2013).

In the case of `CCCCC(=O)N(Cc1ccc(-c2ccccc2-c2nnn[nH]2)cc1)[C@H](C(=O)O)C(C)C` [valsartan], the “LV ANP mRNA expression compared to valsartan 1 mg/kg/d treated dTGR” value in assay [1] (valsartan 10 mg/kg/d) is “reduces the expression of this gene, but not to a significant degree”. Also, the “cardiac hypertrophy index score” value in assay [2] (valsartan 10 mg/kg/d in the food from week 6, age 9 weeks) was “decreases”. Also, the Ea/Aa ratio entry in assay [3] (setting [6]) is “about 0.68”; in assay [3] (valsartan 1 mg/kg/d in the food, listed as Val), 0.66; in assay [3] (setting [7]), “about 1.0”; in assay [3] (valsartan 10 mg/kg/d in the food, listed as Val), 1.0. The “diastolic dysfunction / diastolic filling (in words)” value is listed as “marked diastolic dysfunction” in assay [3] (valsartan 1 mg/kg/d); “severe diastolic dysfunction” in assay [3] (valsartan 1 mg/kg/d, listed as Val); “still present” in assay [3] (valsartan 10 mg/kg/d (high dose)); “indicating diastolic dysfunction” in assay [3] (valsartan 10 mg/kg/d (high dose), listed as Val). For the same compound, the “wall thickness (septum + LV posterior wall)” value in assay [4] (setting [6]) was “about 3.4 mm”; in assay [4] (setting [7]), “about 2.7 mm”. In addition, the “left ventricular hypertrophy (in words)” value in assay [4] (valsartan 1 mg/kg/d) was “concentric hypertrophy; also recorded: severe left ventricular hypertrophy; also recorded: severe septal and posterior wall hypertrophy”; in assay [4] (valsartan 10 mg/kg/d), “markedly ameliorated”; in assay [4] (valsartan 10 mg/kg/d, listed as Val) it was “reduces septal and posterior wall hypertrophy substantially”. Also, the “shift from α-MHC expression to the fetal β-MHC isoform (LV mRNA)” value in assay [5] (valsartan 10 mg/kg/d) was “prevent the shift”.

For `COCCCOc1cc(C[C@@H](C[C@H](N)[C@@H](O)C[C@H](C(=O)NCC(C)(C)C(N)=O)C(C)C)C(C)C)ccc1OC` [aliskiren, 2(S),4(S),5(S),7(S)—N-(3-amino-2,2-dimethyl-3-oxopropyl)-2,7-di(1-methylethyl)-4-hydroxy-5-amino-8-[4-methoxy-3-(3-methoxy-propoxy)phenyl]-octanamide], the “LV ANP mRNA expression compared to valsartan 1 mg/kg/d treated dTGR” value in assay [1] (aliskiren 0.3 mg/kg/d) and in assay [1] (aliskiren 3 mg/kg/d) was “reduced” throughout. The “cardiac hypertrophy index score” value is “decreases” in assay [2] (aliskiren 0.3 mg/kg/d subcutaneous minipump from week 6, age 9 weeks) and “decreases” in assay [2] (aliskiren 3 mg/kg/d subcutaneous minipump from week 6, age 9 weeks). For the same compound, the “cardiac hypertrophy index compared to valsartan 10 mg/kg/d treated dTGR” value in assay [2] (aliskiren 3 mg/kg/d, age 9 weeks) is “significantly lower”. The Ea/Aa ratio result in assay [3] (aliskiren 0.3 mg/kg/d (low dose) subcutaneous minipump) is “about 1.5”; in assay [3] (aliskiren 0.3 mg/kg/d (low dose) subcutaneous minipump, listed as Alisk), 1.5; in assay [3] (aliskiren 3 mg/kg/d (high dose) subcutaneous minipump), “about 1.4”; in assay [3] (aliskiren 3 mg/kg/d (high dose) subcutaneous minipump, listed as Alisk), 1.5. Further, the “diastolic dysfunction / diastolic filling (in words)” value is recorded as “markedly improve” in assay [3] (aliskiren 0.3 mg/kg/d); “appropriate diastolic filling” in assay [3] (aliskiren 0.3 mg/kg/d, listed as Alisk); “markedly improve; also recorded: best diastolic filling” in assay [3] (aliskiren 3 mg/kg/d); “appropriate diastolic filling” in assay [3] (setting [8]). Besides, the “left ventricular hypertrophy (in words)” value is recorded as “markedly ameliorated” in assay [4] (aliskiren 0.3 mg/kg/d); “reduce left ventricular hypertrophy” in assay [4] (aliskiren 0.3 mg/kg/d, listed as Aliskiren); “markedly ameliorated; also recorded: lowest wall thickness values” in assay [4] (aliskiren 3 mg/kg/d); “reduce left ventricular hypertrophy; also recorded: normalized LV dimensions” in assay [4] (setting [8]). Besides, the “wall thickness (septum + LV posterior wall)” value in assay [4] (aliskiren 3 mg/kg/d subcutaneous minipump) is reported as “about 2.2 mm”. Besides, the “shift from α-MHC expression to the fetal β-MHC isoform (LV mRNA)” value in assay [5] (aliskiren 0.3 mg/kg/d) was “prevent the shift”; in assay [5] (aliskiren 3 mg/kg/d), “prevent the shift”; in assay [5] (aliskiren 3 mg/kg/d, listed as Aliskiren), “most effective”.
